Laboratory results as given in patent publication US11766044B2, “Method for controlling PPO resistant weeds” (BASF SE, priority 2016, dated 2023).

Test system: sensitive (w.7) and resistant weeds (w.8, w.9)
Type: in vivo, Amaranthus tuberculatus
Conditions: table 3, 1 and 2 g/ha

CCOC(=O)COc1ncccc1Oc1cc(-n2c(=O)cc(C(F)(F)F)n(C)c2=O)c(F)cc1Cl [compound (I).1]
activity on both sensitive and resistant weeds: very good activity
